# Source: patent US8987293B2, “Morphinans useful as analgesics” (Phoenix Pharmalabs, Inc., priority 2010, dated 2015)
# Experiments:
# [1] = biological target: T1, human delta receptor (Homo sapiens, UniProt P41143); test: Opioid receptor binding affinity, [3H]Cl-DPDPE, CHO cell membranes
# T1 construct: expressed in transfected cells; host or cells: CHO cells
# [2] = biological target: T2, human kappa receptor (Homo sapiens, UniProt P41145); test: Opioid receptor binding affinity, [3H]U69593, CHO cell membranes
# T2 construct: expressed in transfected cells; host or cells: CHO cells
# T2 sequence (P41145 whole entry): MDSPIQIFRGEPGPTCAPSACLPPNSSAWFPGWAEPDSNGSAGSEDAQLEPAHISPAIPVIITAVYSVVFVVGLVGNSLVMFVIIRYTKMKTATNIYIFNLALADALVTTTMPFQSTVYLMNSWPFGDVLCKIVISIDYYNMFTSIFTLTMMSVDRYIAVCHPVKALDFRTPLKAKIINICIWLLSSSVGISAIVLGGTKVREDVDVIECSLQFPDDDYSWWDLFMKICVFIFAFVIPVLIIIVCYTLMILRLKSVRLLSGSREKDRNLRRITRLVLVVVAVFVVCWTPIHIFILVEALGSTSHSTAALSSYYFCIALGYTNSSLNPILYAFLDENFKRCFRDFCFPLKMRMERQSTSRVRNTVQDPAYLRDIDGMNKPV
# [3] = biological target: T1, human delta receptor; test: [35S]GTP γS binding functional assay, CHO cell membranes; assay type: biochemical
# [4] = biological target: T2, human kappa receptor; test: as above; assay type: biochemical; conditions: 1 hr at 25 C
# T1 sequence (P41143 whole entry): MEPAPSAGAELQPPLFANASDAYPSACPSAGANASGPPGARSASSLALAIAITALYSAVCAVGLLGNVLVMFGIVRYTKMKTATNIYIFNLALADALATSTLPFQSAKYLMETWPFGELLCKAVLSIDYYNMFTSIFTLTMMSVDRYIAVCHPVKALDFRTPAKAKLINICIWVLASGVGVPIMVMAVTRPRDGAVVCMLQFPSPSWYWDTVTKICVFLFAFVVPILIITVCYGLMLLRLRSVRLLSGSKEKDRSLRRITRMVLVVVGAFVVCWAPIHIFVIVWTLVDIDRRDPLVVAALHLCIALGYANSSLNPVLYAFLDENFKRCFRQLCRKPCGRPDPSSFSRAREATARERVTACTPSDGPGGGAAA
structure (smiles),measurement,setting,value
C[C@H](C1CC1)N1CC[C@]23CCCC[C@H]2[C@H]1Cc1ccc(O)cc13 [Compound 5],Ki,[1],2.47 ± 0.1 nM
same,Ki,[2],0.29 ± 0.1 nM
same,EC50,[3],9.01 ± 2.6 nM
same,percent stimulation at the delta receptor,"[3]; [35S]GTP γS, 1 hr at 25 C",39.8±3.9%
same,percent stimulation at the kappa receptor,[4],41.7±5.0%
